Experimental data reported in ChEMBL document CHEMBL4507284, “Data for DCP probe BI-1230” (2021).

Assays:
[1] = target: AP2-associated protein kinase 1 (Homo sapiens) (UniProt Q2M2I8); settings: Compound concentration 1000.0 nM
[2] = system: Tyrosine-protein kinase ABL1 (Homo sapiens), P00519 [F317I]; settings: Compound concentration 1000.0 nM
[3] = system: Tyrosine-protein kinase ABL1 (Homo sapiens), P00519 [Y253F]; settings: Compound concentration 1000.0 nM
[4] = target: RAC-beta serine/threonine-protein kinase (Homo sapiens) (UniProt P31751); settings: Compound concentration 1000.0 nM
[5] = target: ALK tyrosine kinase receptor (Homo sapiens) (UniProt Q9UM73); settings: Compound concentration 1000.0 nM
[6] = system: ALK tyrosine kinase receptor (Homo sapiens), Q9UM73 [C1156Y]; settings: Compound concentration 1000.0 nM
[7] = target: Tyrosine-protein kinase BTK (Homo sapiens) (UniProt Q06187); settings: Compound concentration 1000.0 nM
[8] = target: Mitotic checkpoint serine/threonine-protein kinase BUB1 (Homo sapiens) (UniProt O43683); settings: Compound concentration 1000.0 nM
[9] = target: Calcium/calmodulin-dependent protein kinase type II subunit gamma (Homo sapiens) (UniProt Q13555); settings: Compound concentration 1000.0 nM
[10] = target: Cyclin-dependent kinase 11A (Homo sapiens) (UniProt Q9UQ88); settings: Compound concentration 1000.0 nM
[11] = target: Cyclin-dependent kinase 4 (Homo sapiens) (UniProt P11802); settings: Compound concentration 1000.0 nM
Sequence of Cyclin-dependent kinase 4 (Homo sapiens) (P11802 whole entry): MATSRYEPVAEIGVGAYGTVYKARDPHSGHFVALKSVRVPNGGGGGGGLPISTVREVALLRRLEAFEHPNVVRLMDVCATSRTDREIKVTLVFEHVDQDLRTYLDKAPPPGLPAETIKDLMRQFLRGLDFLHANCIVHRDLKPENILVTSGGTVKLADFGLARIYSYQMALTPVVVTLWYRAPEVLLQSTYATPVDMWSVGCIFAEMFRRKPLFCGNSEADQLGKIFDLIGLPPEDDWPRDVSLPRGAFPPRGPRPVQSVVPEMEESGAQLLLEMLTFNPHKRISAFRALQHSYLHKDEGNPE

[12] = target: Cyclin-dependent kinase-like 5 (Homo sapiens) (UniProt O76039); settings: Compound concentration 1000.0 nM
[13] = target: Tyrosine-protein kinase CSK (Homo sapiens) (UniProt P41240); settings: Compound concentration 1000.0 nM
[14] = target: Casein kinase I isoform epsilon (Homo sapiens) (UniProt P49674); settings: Compound concentration 1000.0 nM
[15] = target: Death-associated protein kinase 3 (Homo sapiens) (UniProt O43293); settings: Compound concentration 1000.0 nM
Sequence of Death-associated protein kinase 3 (Homo sapiens) (O43293 whole entry, looked up): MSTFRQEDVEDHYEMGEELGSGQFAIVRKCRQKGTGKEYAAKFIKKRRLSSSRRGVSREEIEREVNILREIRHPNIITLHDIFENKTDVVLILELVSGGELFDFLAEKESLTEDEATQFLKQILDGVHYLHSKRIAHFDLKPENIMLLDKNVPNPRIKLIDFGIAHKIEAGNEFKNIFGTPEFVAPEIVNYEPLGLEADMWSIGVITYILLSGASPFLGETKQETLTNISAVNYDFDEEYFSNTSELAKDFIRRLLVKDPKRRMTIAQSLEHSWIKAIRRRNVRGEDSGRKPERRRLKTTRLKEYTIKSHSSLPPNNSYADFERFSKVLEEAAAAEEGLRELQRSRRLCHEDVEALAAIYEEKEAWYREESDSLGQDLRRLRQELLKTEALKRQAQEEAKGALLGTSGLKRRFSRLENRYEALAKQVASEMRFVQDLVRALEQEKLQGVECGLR

[16] = target: Serine/threonine-protein kinase MRCK gamma (Homo sapiens) (UniProt Q6DT37); settings: Compound concentration 1000.0 nM
Sequence of Serine/threonine-protein kinase MRCK gamma (Homo sapiens) (Q6DT37 whole entry): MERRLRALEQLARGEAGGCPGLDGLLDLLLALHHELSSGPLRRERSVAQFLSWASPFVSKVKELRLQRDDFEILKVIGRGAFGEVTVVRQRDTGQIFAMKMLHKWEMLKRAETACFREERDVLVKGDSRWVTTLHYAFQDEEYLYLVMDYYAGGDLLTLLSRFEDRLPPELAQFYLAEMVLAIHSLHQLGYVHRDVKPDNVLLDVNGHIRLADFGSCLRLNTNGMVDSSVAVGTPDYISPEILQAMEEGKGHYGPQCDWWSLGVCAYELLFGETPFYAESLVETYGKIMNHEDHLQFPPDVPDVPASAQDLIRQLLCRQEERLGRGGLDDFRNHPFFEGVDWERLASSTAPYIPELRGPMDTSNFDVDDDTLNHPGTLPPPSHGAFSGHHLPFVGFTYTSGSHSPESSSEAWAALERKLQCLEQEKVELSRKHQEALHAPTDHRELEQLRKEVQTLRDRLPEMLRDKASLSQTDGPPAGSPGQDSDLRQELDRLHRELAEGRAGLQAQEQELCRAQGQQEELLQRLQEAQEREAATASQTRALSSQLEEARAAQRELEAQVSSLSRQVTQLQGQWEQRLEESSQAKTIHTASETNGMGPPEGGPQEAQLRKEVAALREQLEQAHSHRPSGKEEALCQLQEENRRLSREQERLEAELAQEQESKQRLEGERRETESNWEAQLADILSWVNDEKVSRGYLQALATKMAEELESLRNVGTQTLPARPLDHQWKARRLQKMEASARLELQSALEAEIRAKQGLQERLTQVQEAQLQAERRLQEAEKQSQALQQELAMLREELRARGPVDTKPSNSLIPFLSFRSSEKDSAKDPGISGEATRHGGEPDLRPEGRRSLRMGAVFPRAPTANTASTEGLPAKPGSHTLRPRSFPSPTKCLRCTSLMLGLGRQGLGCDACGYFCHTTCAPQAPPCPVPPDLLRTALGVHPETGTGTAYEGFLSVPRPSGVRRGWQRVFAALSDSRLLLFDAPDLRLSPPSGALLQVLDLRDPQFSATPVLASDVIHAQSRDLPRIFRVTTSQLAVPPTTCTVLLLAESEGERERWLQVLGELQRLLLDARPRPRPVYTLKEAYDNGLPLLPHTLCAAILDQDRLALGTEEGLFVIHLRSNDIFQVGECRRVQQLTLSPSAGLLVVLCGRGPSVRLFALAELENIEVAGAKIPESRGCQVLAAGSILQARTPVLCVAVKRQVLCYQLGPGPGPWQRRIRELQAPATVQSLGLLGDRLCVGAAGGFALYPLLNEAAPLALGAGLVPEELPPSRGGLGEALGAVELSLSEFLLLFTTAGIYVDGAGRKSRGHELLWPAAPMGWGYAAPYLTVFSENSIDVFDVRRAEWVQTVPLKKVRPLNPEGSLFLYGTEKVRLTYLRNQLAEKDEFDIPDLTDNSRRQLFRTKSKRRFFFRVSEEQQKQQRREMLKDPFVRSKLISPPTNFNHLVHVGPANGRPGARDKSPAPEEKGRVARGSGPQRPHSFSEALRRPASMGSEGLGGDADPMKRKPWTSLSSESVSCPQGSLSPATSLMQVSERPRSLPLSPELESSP

[17] = target: Epidermal growth factor receptor (Homo sapiens) (UniProt P00533); settings: Compound concentration 1000.0 nM
[18] = target: Ephrin type-B receptor 1 (Homo sapiens) (UniProt P54762); settings: Compound concentration 1000.0 nM
[19] = target: Tyrosine-protein kinase Fgr (Homo sapiens) (UniProt P09769); settings: Compound concentration 1000.0 nM
[20] = system: Receptor-type tyrosine-protein kinase FLT3 (Homo sapiens), P36888 [D835V]; settings: Compound concentration 1000.0 nM
[21] = system: Receptor-type tyrosine-protein kinase FLT3 (Homo sapiens), P36888 [R834Q]; settings: Compound concentration 1000.0 nM
[22] = target: Tyrosine-protein kinase FRK (Homo sapiens) (UniProt P42685); settings: Compound concentration 1000.0 nM
[23] = target: Inhibitor of nuclear factor kappa-B kinase subunit epsilon (Homo sapiens) (UniProt Q14164); settings: Compound concentration 1000.0 nM
[24] = target: Tyrosine-protein kinase Lck (Homo sapiens) (UniProt P06239); settings: Compound concentration 1000.0 nM
[25] = target: LIM domain kinase 1 (Homo sapiens) (UniProt P53667); settings: Compound concentration 1000.0 nM
[26] = target: Serine/threonine-protein kinase 10 (Homo sapiens) (UniProt O94804); settings: Compound concentration 1000.0 nM
[27] = target: Mitogen-activated protein kinase kinase kinase 15 (Homo sapiens) (UniProt Q6ZN16); settings: Compound concentration 1000.0 nM
Sequence of Mitogen-activated protein kinase kinase kinase 15 (Homo sapiens) (Q6ZN16 whole entry): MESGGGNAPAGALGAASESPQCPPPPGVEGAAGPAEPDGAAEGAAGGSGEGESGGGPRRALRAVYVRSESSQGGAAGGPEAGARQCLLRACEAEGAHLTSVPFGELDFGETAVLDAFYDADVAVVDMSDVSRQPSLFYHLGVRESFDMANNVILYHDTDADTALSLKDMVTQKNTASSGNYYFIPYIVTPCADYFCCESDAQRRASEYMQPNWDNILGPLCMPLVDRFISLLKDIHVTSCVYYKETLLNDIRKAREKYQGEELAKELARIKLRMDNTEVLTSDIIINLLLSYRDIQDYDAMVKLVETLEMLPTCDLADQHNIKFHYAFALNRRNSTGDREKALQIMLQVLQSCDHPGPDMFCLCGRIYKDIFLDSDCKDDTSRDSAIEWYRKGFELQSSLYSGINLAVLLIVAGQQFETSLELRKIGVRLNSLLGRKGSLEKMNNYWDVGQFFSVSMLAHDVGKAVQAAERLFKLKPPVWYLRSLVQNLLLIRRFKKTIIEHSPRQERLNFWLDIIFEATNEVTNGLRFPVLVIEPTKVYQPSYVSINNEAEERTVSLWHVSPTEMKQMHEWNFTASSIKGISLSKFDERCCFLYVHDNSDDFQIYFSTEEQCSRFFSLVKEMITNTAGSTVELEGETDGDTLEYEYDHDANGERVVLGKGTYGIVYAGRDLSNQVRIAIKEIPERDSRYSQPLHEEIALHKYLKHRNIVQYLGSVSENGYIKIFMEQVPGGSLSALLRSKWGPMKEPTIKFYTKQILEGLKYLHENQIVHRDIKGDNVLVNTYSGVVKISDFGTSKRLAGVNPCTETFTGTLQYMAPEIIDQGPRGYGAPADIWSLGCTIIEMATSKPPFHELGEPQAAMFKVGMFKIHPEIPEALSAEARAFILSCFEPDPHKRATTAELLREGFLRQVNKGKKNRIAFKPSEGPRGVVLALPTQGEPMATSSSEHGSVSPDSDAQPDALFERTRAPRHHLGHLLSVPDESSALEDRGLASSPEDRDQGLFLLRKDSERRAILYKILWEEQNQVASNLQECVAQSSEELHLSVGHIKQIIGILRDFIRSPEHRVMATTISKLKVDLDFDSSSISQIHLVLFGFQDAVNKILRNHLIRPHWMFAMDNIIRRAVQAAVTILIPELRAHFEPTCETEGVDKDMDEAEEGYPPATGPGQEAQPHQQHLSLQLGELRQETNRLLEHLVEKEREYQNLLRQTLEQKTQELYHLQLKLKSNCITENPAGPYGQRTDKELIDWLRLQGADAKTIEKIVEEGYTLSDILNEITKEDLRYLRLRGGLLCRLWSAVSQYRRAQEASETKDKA

[28] = target: Serine/threonine-protein kinase Nek3 (Homo sapiens) (UniProt P51956); settings: Compound concentration 1000.0 nM
[29] = target: Phosphorylase b kinase gamma catalytic chain, skeletal muscle/heart isoform (Homo sapiens) (UniProt Q16816); settings: Compound concentration 1000.0 nM
[30] = target: Phosphatidylinositol 3-kinase C2 domain-containing subunit gamma (Homo sapiens) (UniProt O75747); settings: Compound concentration 1000.0 nM
[31] = target: Phosphatidylinositol 4,5-bisphosphate 3-kinase catalytic subunit alpha isoform (Homo sapiens) (UniProt P42336); settings: Compound concentration 1000.0 nM
[32] = system: Phosphatidylinositol 4,5-bisphosphate 3-kinase catalytic subunit alpha isoform (Homo sapiens), P42336 [H1047L]; settings: Compound concentration 1000.0 nM
[33] = target: Phosphatidylinositol 4-phosphate 5-kinase type-1 alpha (Homo sapiens) (UniProt Q99755); settings: Compound concentration 1000.0 nM
[34] = target: Serine/threonine-protein kinase D1 (Homo sapiens) (UniProt Q15139); settings: Compound concentration 1000.0 nM
[35] = target: Proto-oncogene tyrosine-protein kinase receptor Ret (Homo sapiens) (UniProt P07949); settings: Compound concentration 1000.0 nM
Sequence of Proto-oncogene tyrosine-protein kinase receptor Ret (Homo sapiens) (P07949 whole entry): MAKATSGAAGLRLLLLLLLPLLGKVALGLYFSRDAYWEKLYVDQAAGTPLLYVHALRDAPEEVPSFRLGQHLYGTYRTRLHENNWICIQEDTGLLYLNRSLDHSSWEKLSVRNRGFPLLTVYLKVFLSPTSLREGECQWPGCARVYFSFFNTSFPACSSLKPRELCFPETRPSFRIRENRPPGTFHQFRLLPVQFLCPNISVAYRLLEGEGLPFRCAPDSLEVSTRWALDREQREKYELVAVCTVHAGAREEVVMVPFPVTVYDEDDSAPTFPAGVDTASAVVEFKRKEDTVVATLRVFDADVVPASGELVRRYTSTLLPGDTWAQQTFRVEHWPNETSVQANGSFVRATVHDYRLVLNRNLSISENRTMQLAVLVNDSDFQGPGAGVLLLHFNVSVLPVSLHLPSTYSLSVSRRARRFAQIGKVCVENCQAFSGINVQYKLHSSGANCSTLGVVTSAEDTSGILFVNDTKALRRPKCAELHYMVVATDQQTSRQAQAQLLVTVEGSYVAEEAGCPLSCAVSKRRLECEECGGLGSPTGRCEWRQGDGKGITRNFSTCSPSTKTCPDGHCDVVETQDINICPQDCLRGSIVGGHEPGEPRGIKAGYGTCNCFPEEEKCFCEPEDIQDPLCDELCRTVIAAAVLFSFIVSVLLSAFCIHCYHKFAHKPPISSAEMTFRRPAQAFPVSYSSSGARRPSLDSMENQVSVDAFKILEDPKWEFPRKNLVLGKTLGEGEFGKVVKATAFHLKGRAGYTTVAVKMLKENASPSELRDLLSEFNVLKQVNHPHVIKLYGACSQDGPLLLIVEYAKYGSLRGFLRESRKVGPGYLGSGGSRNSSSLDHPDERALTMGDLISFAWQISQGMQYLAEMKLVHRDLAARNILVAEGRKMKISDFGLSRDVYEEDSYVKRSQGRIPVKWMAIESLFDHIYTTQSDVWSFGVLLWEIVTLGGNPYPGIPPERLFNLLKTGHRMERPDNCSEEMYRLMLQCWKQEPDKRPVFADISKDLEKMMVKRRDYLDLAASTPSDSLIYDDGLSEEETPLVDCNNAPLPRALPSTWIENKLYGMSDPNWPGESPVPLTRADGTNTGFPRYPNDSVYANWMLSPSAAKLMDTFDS

[36] = system: Proto-oncogene tyrosine-protein kinase receptor Ret (Homo sapiens), P07949 [V804M]; settings: Compound concentration 1000.0 nM
Sequence of Proto-oncogene tyrosine-protein kinase receptor Ret (Homo sapiens), P07949 [V804M] (P07949 whole entry V804M): as the sequence (P07949 whole entry) above, with V804M counted along it

[37] = target: Ribosomal protein S6 kinase alpha-1 (Homo sapiens) (UniProt Q15418); settings: Compound concentration 1000.0 nM
[38] = target: Ribosomal protein S6 kinase alpha-6 (Homo sapiens) (UniProt Q9UK32); settings: Compound concentration 1000.0 nM
[39] = target: Serine/threonine-protein kinase Sgk1 (Homo sapiens) (UniProt O00141); settings: Compound concentration 1000.0 nM
[40] = target: Serine/threonine-protein kinase 36 (Homo sapiens) (UniProt Q9NRP7); settings: Compound concentration 1000.0 nM
[41] = target: STE20/SPS1-related proline-alanine-rich protein kinase (Homo sapiens) (UniProt Q9UEW8); settings: Compound concentration 1000.0 nM
[42] = target: Serine/threonine-protein kinase WNK3 (Homo sapiens) (UniProt Q9BYP7); settings: Compound concentration 1000.0 nM
[43] = target: Mitogen-activated protein kinase kinase kinase 20 (Homo sapiens) (UniProt Q9NYL2); settings: Compound concentration 1000.0 nM
[44] = target: 5-hydroxytryptamine receptor 1B (Homo sapiens) (UniProt P28222); settings: Compound concentration 10.0 uM
[45] = target: Sigma non-opioid intracellular receptor 1 (Homo sapiens) (UniProt Q99720); settings: Compound concentration 10.0 uM
Sequence of Sigma non-opioid intracellular receptor 1 (Homo sapiens) (Q99720 whole entry): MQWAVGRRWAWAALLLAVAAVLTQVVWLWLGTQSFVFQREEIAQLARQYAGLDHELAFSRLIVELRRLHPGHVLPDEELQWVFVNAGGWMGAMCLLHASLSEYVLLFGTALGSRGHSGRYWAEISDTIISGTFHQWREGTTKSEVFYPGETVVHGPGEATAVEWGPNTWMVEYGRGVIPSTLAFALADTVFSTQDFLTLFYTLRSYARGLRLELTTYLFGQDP

COc1ccc2c(O[C@@H]3C[C@H]4C(=O)N[C@]5(C(=O)O)CC5/C=C\CCCCC[C@H](NC(=O)OC5CCCC5)C(=O)N4C3)cc(-c3csc(NC(=O)C(C)C)n3)nc2c1C (stereo not given in full) [BI 1230]
inactive: residual activity [1] 100% | residual activity [2] 76% | residual activity [3] 87% | residual activity [4] 89% | residual activity [5] 74% | residual activity [6] 100% | residual activity [7] 85% | residual activity [8] 96% | residual activity [9] 100% | residual activity [10] 99% | residual activity [11] 74% | residual activity [12] 77% | residual activity [13] 100% | residual activity [14] 100% | residual activity [15] 100% | residual activity [16] 100% | residual activity [17] 92% | residual activity [18] 100% | residual activity [19] 100% | residual activity [20] 79% | residual activity [21] 92% | residual activity [22] 100% | residual activity [23] 82% | residual activity [24] 100% | residual activity [25] 100% | residual activity [26] 100% | residual activity [27] 70% | residual activity [28] 76% | residual activity [29] 96% | residual activity [30] 86% | residual activity [31] 75% | residual activity [32] 79% | residual activity [33] 98% | residual activity [34] 89% | residual activity [35] 91% | residual activity [36] 96% | residual activity [37] 100% | residual activity [38] 100% | residual activity [39] 81% | residual activity [40] 93% | residual activity [41] 100% | residual activity [42] 100% | residual activity [43] 83% | inhibition [44] 7.71% | inhibition [45] 42.1%

O=C(N[C@H]1CCCCC/C=C\C2C[C@@]2(C(=O)O)NC(=O)[C@@H]2C[C@@H](Oc3ccncc3)CN2C1=O)OC1CCCC1 (stereo not given in full) [BI 1675]
inactive: residual activity [1] 77% | residual activity [2] 96% | residual activity [3] 100% | residual activity [4] 85% | residual activity [5] 100% | residual activity [6] 100% | residual activity [7] 100% | residual activity [8] 100% | residual activity [9] 86% | residual activity [10] 88% | residual activity [11] 100% | residual activity [12] 83% | residual activity [13] 96% | residual activity [14] 67% | residual activity [15] 100% | residual activity [16] 90% | residual activity [17] 99% | residual activity [18] 100% | residual activity [19] 100% | residual activity [20] 92% | residual activity [21] 93% | residual activity [22] 100% | residual activity [23] 100% | residual activity [24] 100% | residual activity [25] 92% | residual activity [26] 99% | residual activity [27] 68% | residual activity [28] 100% | residual activity [29] 88% | residual activity [30] 71% | residual activity [31] 98% | residual activity [32] 100% | residual activity [33] 99% | residual activity [34] 96% | residual activity [35] 94% | residual activity [36] 100% | residual activity [37] 82% | residual activity [38] 86% | residual activity [39] 100% | residual activity [40] 85% | residual activity [41] 100% | residual activity [42] 100% | residual activity [43] 90% | inhibition [44] -3.04% | inhibition [45] 11.1%
